{
  "source": "patent US7803735B2",
  "about": "“Hydroconversion processes employing multi-metallic catalysts and method for making thereof” (Chevron U.S.A. Inc., priority 2007, dated 2010)",
  "origin": "cited, not measured here",
  "tested_on": "rats",
  "conditions": "single oral dose to rats; chelating agent (ligand) L",
  "data": [
    {"smiles": "O=CC(=O)O", "note": "[glyoxylic]", "values": [
      {"measurement": "LD50", "result": 3000, "unit": "mg/kg"}
    ]}
  ]
}
